Measurements as given in paper PMC8665362, “Identification of small-molecule allosteric modulators that act as enhancers/disrupters of rhodopsin oligomerization” (The Journal of Biological Chemistry, 2021).
Marks after values point to notes of the source that are not given here.

Columns and labels:
[1] = biological target: T1, rhodopsin (isorhodopsin) dimerization (Homo sapiens, UniProt P08100); test: rhodopsin β-gal fragment complementation assay in U2OS opsin-EA/opsin-PK cells; format: cell-based; parameters: expressed in transfected cells; conditions: for EC50: U2OS opsin-EA/PK cells regenerated with 9-cis-retinal, triplicates, read from Fig. 3A,D
Source text: (§1) To identify small molecules that target rhodopsin dimerization, a cell-based high-throughput screening (HTS) assay was used to screen a diverse library of 50,000 compounds from Life Chemicals. The human osteosarcoma (U2OS) stable cell line was used, which expresses opsin fused with complimentary subunits of β-galactosidase (β-gal), namely, the enzyme acceptor large β-gal subunit (EA) and the enzyme donor, small subunit of β-gal (PK). Upon rhodopsin self-association in vitro, a competent β-gal was formed and chemiluminescent signal was generated in the presence of β-gal substrate (Fig. 1A). For further validation, the β-gal activity assay was used to counter-screen and rule out false positives, affecting the activity of β-gal without affecting rhodopsin (Fig. 1B) ([34]). In an orthogonal assay, rhodopsin dimerization was assessed using a bioluminescence resonance energy transfer (BRET) assay with human embryonic kidney 293 cells expressing opsin fused with Renilla luciferase and opsin fused with Venus (Fig. 1C) ([35], [36]). To form functional visual pigment, opsin-fused proteins were regenerated with 9-cis-retinal to form so-called isorhodopsin ([37]). We chose 9-cis-retinal over photoreceptor-endogenous 11-cis-retinal because of its availability and the prohibitive cost for HTS assays with the native chromophore. Rhodopsin and isorhodopsin have similar biochemical and spectral properties (see ([38])).
All 50,000 compounds were screened, using the β-gal complementation assay at a final concentration of 60 μM with a Z′ factor of 0.75 ± 0.01 and a signal-to-background (S/B) ratio of 123 ± 14.4 (Fig. 2A) ([39]). The activity scores were calculated according to the following equation: (RLU(compound)−RLU(positivecontrol))/(RLU(negativecontrol)−RLU(positivecontrol))×100.
The positive control comprised U2OS cells transfected with both opsin-EA and opsin-PK, mimicking dimer formation (with a 0% score value), and the negative control comprised U2OS cells transfected with opsin-EA only, mimicking disrupted dimer formation (with a 100% score value).
In this study, cultured U2OS opsin-EA and opsin-PK cells were diluted to 2 × 10^5 cells/ml in the culture medium containing 10% fetal bovine serum (Thermo Fisher Scientific) and 1% penicillin-streptomycin 10,000 U/ml (Thermo Fisher Scientific). Cell diluent of 20 μl/well was dispensed into a white ViewPlate-384 (PerkinElmer) using the EL406 plate dispenser (BioTek). As a control, we used U2OS opsin-EA–only expressing cells as a positive control for dimerization disruption generating a minimal luminescence signal, as previously described ([41]). The plates were cultured overnight at 37 °C in 5% CO2, and the next day, under a dim red light, cells were treated with 5 μl/well of 9-cis-retinal (Sigma-Aldrich) at 7.5 μM final concentration. Plates were covered with aluminum foil and cultured overnight at 37 °C in 5% CO2. Next, cells were treated with each of the 50,000 library compounds (Life Chemicals Inc) at a final concentration of 57.6 μM, using a JANUS automated workstation (PerkinElmer), followed by incubation overnight at 37 °C, covered with aluminum foil. The next day, cells were treated with Galacton-Star chemiluminescent substrate (23 μl/well; Thermo Fisher Scientific). The plates were covered with foil and incubated at 20 °C for 2 h, followed by luminescence reading with the EnSpire multimode plate reader (PerkinElmer). Measurements were evaluated with the lowest value being defined as −50% (dimer enhancers) and the highest value as 100% (dimer disrupters) in the compound dataset. All experiments were done under red-light conditions. Identified compounds were retested in triplicates ranging from 180 μM down to 2.4 nM concentrations.

[2] = biological target: T1, rhodopsin (isorhodopsin) dimerization; test: rhodopsin dimerization BRET assay in HEK293 opsin-Rluc/opsin-Venus cells; format: cell-based; parameters: expressed in transfected cells; host or cells: HEK293 (human embryonic kidney 293) opsin-Rluc / opsin-Venus cell lines; conditions: for EC50: HEK293 opsin-Rluc/opsin-Venus cells regenerated with 9-cis-retinal, triplicates, read from Fig. 3B,E
Source text: as §1
Identified hits from the β-gal complementation assay were subjected to the previously developed BRET assay, using human embryonic kidney 293 opsin–Renilla luciferase and opsin-Venus cell lines ([37]). Cultured cells were diluted to 2 × 10^5 cells/ml in the medium containing 10% fetal bovine serum (Thermo Fisher Scientific) and 1% penicillin-streptomycin (10,000 U/ml; Thermo Fisher Scientific), and 20 μl/well of the cell diluent was dispensed into a white ViewPlate-384 (PerkinElmer). Cells were cultured overnight at 37 °C in 5% CO2, and under a dim red light, cells were treated with 9-cis-retinal at 7.5 μM final concentration. The next day, cells were treated with the identified hit compounds from the β-gal complementation assay at 180 μM down to 2.4 nM concentrations, and 1 μM final concentration of TM5 peptide ([…]-NH2; EZBiolab) serving as the control. On the following day, the culture medium was aspirated and replaced with 90 μl/well of PBS containing pivaloyloxymethyl acetoxycoelenterazine h (Dalton Research Molecules) at 600 μM concentration followed by incubation at 20 °C for 40 min ([35]). Dual luminescence readings at 480 and 530 nm were performed using a SpectraMax L plate reader with the BRET1 filter set (Molecular Devices).

bovine rhodopsin = biological target: T2, bovine rhodopsin (Bos taurus, UniProt P02699); test: rhodopsin Meta II decay assay (Trp265 intrinsic fluorescence); conditions: 100 μM compound; for Meta II decay rate (slope of intrinsic fluorescence over 150 s) relative to DMSO control: bleached rhodopsin, p < 0.0001
T2 construct: The washed ROS with isotonic and hypotonic buffers was used as described above; from tissue; host or cells: bovine rod outer segments (ROS)
Procedure: However, oligomerization of isorhodopsin could affect the chromophore release from opsin. The chromophore release can be measured sensitively by the light-induced increase in intrinsic fluorescence of the Trp^265 residue that occurs upon release of the chromophore after illumination ([43]).
The washed ROS with isotonic and hypotonic buffers was used as described above. The solubilized rhodopsin at 1.05 mg/ml in 20 mM 1,3-bis(tris(hydroxymethyl)methylamino) propane, pH 6.9, 100 mM NaCl, and 1 mM LMNG buffer was incubated for 5 min at 20 °C with 0.7 μl of 100 mM stock solutions of the nine identified hit compounds (100 μM final concentration) in DMSO and centrifuged at 1000g for an additional 5 min. Next, photobleaching was carried out with a 150-W fiber light delivered through a 480 to 520 nm band pass filter (Chroma Technology) for 10 s. Samples were subjected to fluorescence measurements acquired through 150 s in triplicate. The results were analyzed with an L55 luminescence spectrophotometer (PerkinElmer) operating at excitation and emission wavelengths of 300 nm and 335 nm, respectively.

[3] = tested on: rod photoreceptors of isolated mouse retinas; test: ex vivo ERG of isolated mouse retinas (rod light responses); format: cell-based, mouse (C57BL/6J); conditions: 250 μM compound
Source text: We determined the impact of compound #7 (representative disrupter of rhodopsin dimerization) and compound #1 (representative enhancer) on the sensitivity and kinetics of rod light responses, using ex vivo electroretinogram (ERG) analysis of isolated mouse retinas (Experimental procedures). This technique allows robust recordings from intact retinas and is well suited for quantitative investigation of mouse phototransduction ([48], [49], [50], [51], [52], [53]).
Ex vivo ERG recordings were conducted with isolated retinas of C57Bl/6J mice, as described ([41], [62], [63]). Mice were dark-adapted overnight and euthanized by CO2 asphyxiation, and whole retinas were dissected under dim red light. Before recordings, retinas were incubated for 5 h in Ames’ medium (Sigma-Aldrich) inside a light-tight box that was supplied with humidified 95% O2/5% CO2. For control retinas, 0.1% DMSO was added to the incubation medium, and for others, the incubation medium contained either 250 μM F2502-0030 (compound #1) or F5897-0190 (compound #7). These compounds were first dissolved in DMSO at 250 mM concentration, and 0.1% of this stock solution was added to the incubation medium (Ames’ medium). Stock solution was stored at −20 °C and used within a week. After incubation, retinas were placed on the ex vivo ERG specimen holder and perfused with Ames’ medium (saturated with 95% O2/5% CO2) at 1.5 ml/min at 35 °C. Ames’ medium was supplemented with 100 μM BaCl2 and 40 μM DL-AP4 (Tocris Bioscience) to isolate the photoreceptor component of the ERG signal. Responses were recorded to 5 ms flashes of light (630 nm) ranging from 276 to 308,534 photons μm^−2, corresponding to 1 to 1100 photons μm^−2 at 500 nm ([64]). Sensitivity of rod photoreceptors was determined in three ways: (1) sF = peak amplitude of dim flash response divided by flash energy (1 photon μm^−2); (2) SF = sF/Rmax, where Rmax is the maximal response amplitude measured at the plateau from a saturated rod response; (3) I1/2: flash energy required to elicit 50% of the Rmax determined by fitting a Naka-Rushton function to flash energy-amplitude data.

[4] = tested on: individual rod photoreceptors; test: single-cell suction electrode recording from rod outer segments; format: cell-based, mouse (C57BL/6J); conditions: long incubation time during sample preparation for single-cell recording
Procedure: Because it is possible that reduction of Rmax by compound #1 is due to some effect(s) on the rod photoreceptor inner segment currents that are not directly related to phototransduction ([51], [52]), we conducted also single-cell suction electrode recordings from the ROS from samples that were incubated either in the control medium or in the medium containing enhancer compound #1. The results from single cell recordings were similar to those obtained using ex vivo ERG: Rmax and fractional sensitivity were decreased from 12 (±0.4) to 9 (±0.3) pA and from 3.0 (±0.5) to 1.8 (±0.1)% per photon μm^−2, respectively, by rhodopsin dimerization–enhancing hit #1 (Fig. 6, A–C). Like the ex vivo ERG recordings, light response kinetics was not affected by compound #1 in the single-cell recordings (Fig. 6D).
Suction electrode recordings from individual rod photoreceptors of dark-adapted C57BL/6J mice were conducted as described previously ([65]). Before recordings, isolated retinas were incubated in the control medium (Ames’ medium + 0.1% DMSO) or in the hit compound–containing medium (Ames’ medium +250 μM F2502-0030 (#1)) as described above for ex vivo ERG experiments. After incubation, one half of the retina was chopped with a razor blade and transferred into a chamber where it was perfused at 1 ml/min with Ames’ medium saturated with 95% O2/5% CO2 at 35 °C. Recordings were made from a single ROS, using borosilicate glass electrodes with ∼1.5-μm opening (resistance ∼2 MΩ at 35 °C). The pipette solution was Hepes buffered Ames’ medium composed of 0.88 g Ames’ powder (A1420, Sigma-Aldrich), 0.357 g Hepes (Sigma-Aldrich), and 58.44 mg NaCl in […] distilled and vacuum-filtered water. The pH was adjusted to 7.4 with NaOH. Light responses were recorded to flashes of light ranging from 8 to 700 photons μm^−2 at 500 nm. For analysis, data were low-pass filtered using an 8-pole Bessel filter with cut-off frequency at 30 Hz.

T1 sequence (P08100 whole entry, the tested form may be a part): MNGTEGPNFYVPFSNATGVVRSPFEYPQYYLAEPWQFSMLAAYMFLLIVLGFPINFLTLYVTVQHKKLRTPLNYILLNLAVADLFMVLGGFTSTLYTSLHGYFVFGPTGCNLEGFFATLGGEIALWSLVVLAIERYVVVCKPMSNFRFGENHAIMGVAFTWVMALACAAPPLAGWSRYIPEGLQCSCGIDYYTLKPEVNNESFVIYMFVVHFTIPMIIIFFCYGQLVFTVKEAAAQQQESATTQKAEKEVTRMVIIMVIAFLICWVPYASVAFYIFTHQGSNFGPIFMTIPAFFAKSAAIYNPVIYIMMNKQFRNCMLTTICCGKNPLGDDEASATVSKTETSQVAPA
T2 sequence (P02699 whole entry): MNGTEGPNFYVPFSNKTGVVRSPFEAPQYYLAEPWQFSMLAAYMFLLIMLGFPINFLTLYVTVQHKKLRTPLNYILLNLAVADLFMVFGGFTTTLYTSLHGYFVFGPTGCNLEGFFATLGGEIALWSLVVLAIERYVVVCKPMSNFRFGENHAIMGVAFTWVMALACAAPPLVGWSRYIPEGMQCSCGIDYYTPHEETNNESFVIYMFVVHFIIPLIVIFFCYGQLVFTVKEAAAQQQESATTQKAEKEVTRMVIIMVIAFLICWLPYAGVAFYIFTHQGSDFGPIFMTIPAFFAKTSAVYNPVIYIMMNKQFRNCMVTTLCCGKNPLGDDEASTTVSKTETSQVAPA

| Compound | EC50 [1] | EC50 [2] | Meta II decay rate (slope of intrinsic fluorescence over 150 s) relative to DMSO control (bovine rhodopsin) | other results |
| --- | --- | --- | --- | --- |
| O=C(Nc1ccc(CC(=O)N2CCC(O)CC2)cc1)c1cc(-c2ccco2)on1 [#3] | 23.9 µM | 7.87 µM | statistically significant signal reduction | light-induced increase in Trp265 intrinsic fluorescence vs DMSO-treated isorhodopsin (bovine rhodopsin): significantly quenched |
| O=C(CCCCn1c(=O)c2ccccc2n(Cc2ccccc2)c1=O)NCc1cccs1 [#4] | – | – | – | effect on dimerization in the β-gal complementation assay [1]: disrupted dimerization; effect on dimerization in the BRET assay [2]: enhanced dimerization |
| COc1ccc(S(=O)(=O)N(C(C)=O)c2cc3sc(=O)oc3c3ccccc23)cc1 [#5] | 31.3 µM | 5.53 µM | – | – |
| CCOc1ccccc1-n1nnc(-c2nn3c(Cc4ccccc4)nnc3s2)c1C [#6] | 30 µM | 13.6 µM | statistically significant signal reduction | – |
| Cc1onc(-c2ccccc2Cl)c1C(=O)Nc1cccc2ccc(-n3ccnc3)nc12 [#7] | – | – | statistically significant signal reduction | effect on kinetics of rod light responses [3]: marked deceleration of light responses; Rmax ([3]; 5 h incubation, N = 4 retinas): 550 ± 40 μV; half-saturating I1/2 from best-fitting Michaelis–Menten equation to mean normalized amplitudes ([3]; Fig. 5F): 34 photons μm^−2; SF (fractional sensitivity, sF/rmax) ([3]; N = 4): 4.0 ± 0.3 ^a %/photons∙μm^−2; sF (absolute sensitivity) ([3]; N = 4): 18 ± 6 ^a μV/photons∙μm^−2; I1/2 ([3]; from individual retinas, N = 4): 35 ± 3 ^a photons∙μm^−2; tp ([3]; time-to-peak of dim flash (1 photon μm^−2), N = 4): 910 ± 100 ^a ms; damage to photoreceptor cells [4]: caused damage to the photoreceptor cells |

More lines, in order of falling EC50 [1], values ahead:

| EC50 [1] | EC50 [2] | Compound | Meta II decay rate (slope of intrinsic fluorescence over 150 s) relative to DMSO control (bovine rhodopsin) | other results |
| --- | --- | --- | --- | --- |
| 16.5 µM | 20.5 µM | NC(=O)c1oc2ccccc2c1NC(=O)c1ccc(Oc2ccccc2)cc1 [#8] | statistically significant signal reduction | – |
| 10.5 µM | 17.7 µM | Cc1c(C(=O)N(Cc2cccnc2)c2nc3c(F)cccc3s2)cnn1-c1ccccc1 [#9] | statistically significant signal reduction | – |
| 1.2 µM | 4 µM | O=C(NCCc1ccsc1)c1cc(-c2ccco2)on1 [#2] | – | – |
